The subject of series [1] is Human Glioblastoma cell line (U87). Put plainly: Cytotoxicity test / growth inhibition, U87. It counts as cell-based. Conditions: U87, 48 hours, cell counting, mM. The protocol: (§1) Cell lines were seeded at appropriate densities in 2 mL growth medium in 6-wells culture plates 24 hours before the treatment with the inhibitor compounds. After 24 h the culture medium was removed and fresh medium containing increasing concentrations of chemical compounds was added to cells. The fixed final concentrations were: 0.1 μM, 1 μM, 10 μM, 100 μM. DMSO was the vehicle used for dilution of the compounds and its final concentration on cells was less than 0.2%. Medium-only containing wells were included as controls. Cells were incubated 48 hours with drugs and, then, cell viability was evaluated.
(§2) Cells were detached from each well of the 6-wells plates with 300 μL of Trypsin and suspended in culture medium to a final volume of 1 mL. Cell viability was then assessed through cell counting. Cells were diluted in 1:50 ratio of an isotonic buffered diluent, Isoton (Backman Coulter), following the manufacturer's instructions, and counted using an automated cell counter (Z2 series Coulter Counter, Beckman Coulter). Each cell count was performed in three replicates. The values corresponding to the relative survival of cells in presence of each chemical compound at single concentrations were normalized to the untreated controls. […]

The test system of series [2] is Human Neuroblastoma cell line (SH-SY5Y). Put plainly: Cytotoxicity test / growth inhibition, SH-SY5Y. The series is classed as cell-based. The following applies: 48 hours, cell counting. The protocol: Cells were purchased from American Type Culture Collection (ATCC, Manassas, Va., USA). The LNCaP (ATCC® CRL-1740™), A549 (ATCC® CCL-185™), MDA-MB-231 (ATCC® CRM-HTB-26™), 22Rv1 (ATCC® CRL-2505™), HCT-116 (ATCC® CCL-247™) and PC3 (ATCC® CRL-1435™) cells were maintained in Roswell Park Memorial Institute 1640 medium (RPMI; Euroclone, ECB9006L) supplemented with 10% fetal bovine serum (Euroclone; ECS0180L), 2 mM L-glutamine, 100 units/mL penicillin and […] streptomycin at 37° C. in an atmosphere of 5% CO2/air. […]
(§3) Cell lines were seeded at appropriate densities in 2 mL growth medium in 6-wells culture plates 24 hours before the treatment with the inhibitor compounds. […] Cells were incubated 48 hours with drugs and, then, cell viability was evaluated.
(§4) Cells were detached from each well of the 6-wells plates with 300 μL of Trypsin and suspended in culture medium to a final volume of 1 mL. Cell viability was then assessed through cell counting. Cells were diluted in 1:50 ratio of an isotonic buffered diluent, Isoton (Backman Coulter), following the manufacturer's instructions, and counted using an automated cell counter (Z2 series Coulter Counter, Beckman Coulter). […]

For series [3], the system named is Human cervical carcinoma cell line (HeLa). As to the kind of experiment: Cytotoxicity test / growth inhibition, HeLa. The series is classed as cell-based. The following applies: 48 hours, cell counting, mM. Here is the method:
(§5) Cells were purchased from American Type Culture Collection (ATCC, Manassas, Va., USA). The LNCaP (ATCC® CRL-1740™), A549 (ATCC® CCL-185™), MDA-MB-231 (ATCC® CRM-HTB-26™), 22Rv1 (ATCC® CRL-2505™), HCT-116 (ATCC® CCL-247™) and PC3 (ATCC® CRL-1435™) cells were maintained in Roswell Park Memorial Institute 1640 medium (RPMI; Euroclone, ECB9006L) supplemented with 10% fetal bovine serum (Euroclone; ECS0180L), 2 mM L-glutamine, 100 units/mL penicillin and […] streptomycin at 37° C. in an atmosphere of 5% CO2/air. DU145 (ATCC® HTB-81™), and DAOY (ATCC® HTB-186™) cells were maintained in Eagle's minimal essential medium (EMEM; Euro-clone, ECM0445L) supplemented with 10% fetal bovine serum (Euroclone; ECS0180L), 2 mM L-glutamine, 100 units/ml penicillin and […] streptomycin at 37° C. in an atmosphere of 5% CO2/air. SH-SY5Y (ATCC® CRL-2266™), DBRTG (ATCC® CRL-2020™), HeLa (ATCC® CCL-2™), HN6 cells (kindly provided by Dr Silvio Gutkind, UCSD Medical Center, Moores Cancer Center USA, Chen J. J et al, Oncotarget 2013, 4, 206-217)), U2OS (ATCC® HTB-96™), RD18 cells (kindly provided by Dr P. Boccuni Memorial Sloan-Kettering Cancer Center, New York, USA Vella S. et al. Clin Epigenetics. […]
as §3, §4

Series [4] in a line: Parallel Artificial Membrane Permeability Assay (PAMPA), GI. The series is classed as in vitro ADME. The following applies: GI (intestinal) PAMPA, value in brackets. The protocol:
Parallel Artificial Membrane Permeability Assay (PAMPA). Donor solution (0.5 mM) was prepared by diluting 1 mM dimethylsulfoxide (DMSO) compound stock solution using phosphate buffer (pH 7.4, 0.025 M). Filters were coated with 5 μL of a 1% (w/v) dodecane solution of phosphatidylcholine prepared from CHCl3 solution 10% w/v, for intestinal permeability. Donor solution (150 μL) was added to each well of the filter plate. To each well of the acceptor plate were added 300 μL of solution (50% DMSO in phosphate buffer). All compounds were tested in three different plates on different days. The sandwich was incubated for 5 h at room temperature under gentle shaking. After the incubation time, the plates were separated, and samples were taken from both receiver and donor sides and analyzed using LC with UV detection at 280 nm.
LC analysis were performed with a Varian Prostar HPLC system (Varian Analytical Instruments, USA) equipped with a binary pump with a manual injection valve and model Prostar 325 UV-VIS Detector. Chromatographic separations were conducted using a Polaris C18-A column (150-4.6 mm, 5 μm particle size) at a flow rate of 0.8 mL min^−1 with a mobile phase composed of 60% ACN/40% H2O.
Permeability (Papp) for PAMPA was calculated according to the following equation, obtained from Wohnsland and Faller and Sugano et al. equation with some modification in order to obtain permeability values in cm s^−1,
where VA is the volume in the acceptor well, VD is the volume in the donor well (cm^3), A is the “effective area” of the membrane (cm^2), t is the incubation time (s) and r the ratio between drug concentration in the acceptor and equilibrium concentration of the drug in the total volume (VD+VA). Drug concentration is estimated by using the peak area integration.
Membrane retentions (%) were calculated according to the following equation: […]
where r is the ratio between drug concentration in the acceptor and equilibrium concentration, D, A, and Eq represented drug concentration in the donor, acceptor and equilibrium solution, respectively.

Series [5] has as its system Human breast adenocarcinoma cell line (MDA-MB-231). As to the kind of experiment: Cytotoxicity test / growth inhibition, MDA-MB-231. Conditions: MDA-MB-231, 48 hours, cell counting. The series is classed as cell-based. Here is the method: (§6) Cells were purchased from American Type Culture Collection (ATCC, Manassas, Va., USA). The LNCaP (ATCC® CRL-1740™), A549 (ATCC® CCL-185™), MDA-MB-231 (ATCC® CRM-HTB-26™), 22Rv1 (ATCC® CRL-2505™), HCT-116 (ATCC® CCL-247™) and PC3 (ATCC® CRL-1435™) cells were maintained in Roswell Park Memorial Institute 1640 medium (RPMI; Euroclone, ECB9006L) supplemented with 10% fetal bovine serum (Euroclone; ECS0180L), 2 mM L-glutamine, 100 units/mL penicillin and […] streptomycin at 37° C. in an atmosphere of 5% CO2/air. DU145 (ATCC® HTB-81™), and DAOY (ATCC® HTB-186™) cells were maintained in Eagle's minimal essential medium (EMEM; Euro-clone, ECM0445L) supplemented with 10% fetal bovine serum (Euroclone; ECS0180L), 2 mM L-glutamine, 100 units/ml penicillin and […] streptomycin at 37° C. in an atmosphere of 5% CO2/air. SH-SY5Y (ATCC® CRL-2266™), DBRTG (ATCC® CRL-2020™), HeLa (ATCC® CCL-2™), HN6 cells (kindly provided by Dr Silvio Gutkind, UCSD Medical Center, Moores Cancer Center USA, Chen J. J et al, Oncotarget 2013, 4, 206-217)), U2OS (ATCC® HTB-96™), RD18 cells (kindly provided by Dr P. Boccuni Memorial Sloan-Kettering Cancer Center, New York, USA Vella S. et al. Clin Epigenetics. 2015 6; 7-82), cells were maintained in Dulbecco's modified Eagle's medium (DMEM; Euroclone, ECB7501L) supplemented with 10% fetal bovine serum (Euroclone; ECS0180L), 2 mM L-glutamine, 100 units/ml penicillin and […] streptomycin at 37° C. in an atmosphere of 5% CO2/air.
as §1
(§7) Cells were detached from each well of the 6-wells plates with 300 μL of Trypsin and suspended in culture medium to a final volume of 1 mL. Cell viability was then assessed through cell counting. Cells were diluted in 1:50 ratio of an isotonic buffered diluent, Isoton (Backman Coulter), following the manufacturer's instructions, and counted using an automated cell counter (Z2 series Coulter Counter, Beckman Coulter). Each cell count was performed in three replicates. The values corresponding to the relative survival of cells in presence of each chemical compound at single concentrations were normalized to the untreated controls. Then, the half maximal inhibitory concentration (IC50) value, which represent the drug concentration that is required to induce a 50% growth inhibition in vitro, was calculated with GraphPad Prism 6.0 software using the best fitting sigmoid curve.

Series [6] in a line: Microsomal Stability Assay (HLM). Conditions: human liver microsomes, 37° C., 60 min, NADPH-generating system; percentage of not metabolized compound. It counts as in vitro ADME. The text has this:
For the quantification was used an LC-MS system consisted of a Varian apparatus (Varian Inc) including a vacuum solvent degassing unit, two pumps (212-LC), a Triple Quadrupole MSD (Mod. 320-LC) mass spectrometer with ES interface and Varian MS Workstation System Control Vers. 6.9 software. Chromatographic separation was obtained using a Pursuit C18 column (50×2.0 mm) (Varian) with 3 μm particle size and gradient elution: eluent A being ACN and eluent B consisting of water. […] The flow rate was 0.2 mL min^−1 and injection volume was 5 μL. The instrument operated in positive mode and parameters were: detector 1850 V, drying gas pressure 25.0 psi, desolvation temperature 300.0° C., nebulizing gas 40.0 psi, needle 5000 V and shield 600 V. Nitrogen was used as nebulizer gas and drying gas. Collision induced dissociation was performed using Argon as the collision gas at a pressure of 1.8 mTorr in the collision cell. Microsomal Stability Assay. […] The reaction was stopped by cooling on ice and adding 1.0 mL of acetonitrile. The reaction mixtures were then centrifuged, and the parent drug and metabolites were subsequently determined by LC-UV-MS. Chromatographic analysis was performed with an Agilent 1100 LC/MSD VL system (G1946C) (Agilent Technologies, Palo Alto, Calif.) constituted by a vacuum solvent degassing unit, a binary high-pressure gradient pump, an 1100 series UV detector, and an 1100 MSD model VL benchtop mass spectrometer.
Chromatographic separation was obtained using a Varian Polaris C18-A column (150-4.6 mm, 5 μm particle size) and gradient elution: eluent A being ACN and eluent B consisting of water. […] The flow rate was 0.8 mL min^−1 and injection volume was 20 μL.
The Agilent 1100 series mass spectra detection (MSD) single-quadrupole instrument was equipped with the orthogonal spray API-ES (Agilent Technologies, Palo Alto, Calif.). Nitrogen was used as nebulizing and drying gas. The pressure of the nebulizing gas, the flow of the drying gas, the capillary voltage, the fragmentor voltage, and the vaporization temperature were set at 40 psi, 9 L/min, 3000 V, 70 V, and 350° C., respectively. UV detection was monitored at 280 nm. The LC-ESI-MS determination was performed by operating the MSD in the positive ion mode. Spectra were acquired over the scan range m/z 100-1500 using a step size of 0.1 u. The percentage of not metabolized compound was calculated by comparison with reference solutions.

The test system of series [7] is Human Prostate cell line derived from brain metastasis (DU-145). Put plainly: Cytotoxicity test / growth inhibition, DU-145. It counts as cell-based. Conditions: DU-145, 48 hours, cell counting. The protocol:
as §6, §1, §2

Series [8] concerns Human Prostate cancer cell line (PC3). As to the kind of experiment: Cytotoxicity test / growth inhibition, PC3. Conditions: PC3, 48 hours, cell counting. It counts as cell-based. Here is the method: as §5, §3, §4
Series [9] concerns Human head and neck squamous carcinoma cell line (HN6). Put plainly: Cytotoxicity test / growth inhibition, HN6. It counts as cell-based. The following applies: HN6, 48 hours, cell counting. The protocol: as §6, §1, §7

Each structure is given as a SMILES string.

For `CCCCc1cn(-c2ccc(NC(=O)Nc3ccccc3C)cc2)nn1` [Compound 20a, 1-(4-(4-butyl-1H-1,2,3-triazol-1-yl)phenyl)-3-o-tolylurea], the IC50 in [1] came to 0.037 mM; in series [2], 149 µM; in series [3], 0.054 mM; in series [5], 18.7 µM. The “PAMPA GI (RM %) membrane retention” value in series [4] came to 19.1%. For the same molecule, in series [6], the Sability % was determined as 99%.

Regarding `CCCCc1cn(-c2ccc(NC(=O)Nc3ccccc3C(F)(F)F)cc2F)nn1` [Compound 81, 1-(4-(4-butyl-1H-1,2,3-triazol-1-yl)-3-fluorophenyl)-3-(2-(trifluoromethyl)phenyl)urea], the “PAMPA GI (RM %) membrane retention” value in series [4] is 30.4%. Further, the midpoint of inhibition in series [5], the IC50, lay at 25.1 µM. In series [6], this molecule displayed a Sability % of 94%.

Regarding `CC(C)CCc1cn(-c2ccc(NC(=O)Nc3cccc4cnccc34)cc2)nn1` [Compound 55f, 1-(4-(4-isopentyl-1H-1,2,3-triazol-1-yl)phenyl)-3-(isoquinolin-5-yl)urea], the half-maximal inhibitory concentration (IC50) in series [7] is 0.6 µM; in series [8], 32.4 µM; in [9], 6.1 µM.
